Test results reported in article PMC8933014, “Diversely substituted sulfamides for fragment-based drug discovery of carbonic anhydrase inhibitors: synthesis and inhibitory profile” (Journal of Enzyme Inhibition and Medicinal Chemistry, 2022).
Structures can show the parent of a compound that is named as a salt.

Columns and labels:
Assay in all cases: stopped-flow CO2 hydration
Format in all cases: biochemical
hCA XII = molecular target: T1, hCA XII (Homo sapiens, UniProt O43570); settings: read-out: Ki (nM)^b / hCA XII
T1 construct: gene CA12; recombinant, obtained in-house
Source text: stopped-flow CO2 hydration on hCA XII

hCA IX = molecular target: T2, hCA IX (Homo sapiens, UniProt Q16790); settings: read-out: Ki (nM)^b / hCA IX
T2 construct: gene CA9; recombinant, obtained in-house
Source text: stopped-flow CO2 hydration on hCA IX

hCA II = molecular target: T3, hCA II (Homo sapiens, UniProt P00918); settings: read-out: Ki (nM)^b / hCA II
T3 construct: gene CA2; recombinant, obtained in-house
Source text: stopped-flow CO2 hydration on hCA II

hCA I = molecular target: T4, hCA I (Homo sapiens, UniProt P00915); settings: read-out: Ki (nM)^b / hCA I
T4 construct: gene CA1; recombinant, obtained in-house
Source text: stopped-flow CO2 hydration on hCA I

T1 sequence (O43570 25-354): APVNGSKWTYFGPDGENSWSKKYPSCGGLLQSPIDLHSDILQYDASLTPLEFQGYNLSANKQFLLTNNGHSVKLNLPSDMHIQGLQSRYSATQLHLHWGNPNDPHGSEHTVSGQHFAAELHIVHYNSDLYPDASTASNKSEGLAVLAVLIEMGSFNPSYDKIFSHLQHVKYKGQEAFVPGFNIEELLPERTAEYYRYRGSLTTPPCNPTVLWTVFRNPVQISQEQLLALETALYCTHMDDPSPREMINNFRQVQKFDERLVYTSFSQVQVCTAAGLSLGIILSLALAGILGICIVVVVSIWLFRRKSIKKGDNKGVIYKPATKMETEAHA
T4 sequence (P00915 2-261): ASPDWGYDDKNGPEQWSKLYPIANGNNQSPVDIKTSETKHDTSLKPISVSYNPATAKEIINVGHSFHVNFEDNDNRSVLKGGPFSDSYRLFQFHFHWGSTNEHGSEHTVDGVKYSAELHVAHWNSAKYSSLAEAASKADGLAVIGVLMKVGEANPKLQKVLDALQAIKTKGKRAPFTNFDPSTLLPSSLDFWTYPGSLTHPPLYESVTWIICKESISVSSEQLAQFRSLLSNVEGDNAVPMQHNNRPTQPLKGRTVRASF

## NS(=O)(=O)N1CCC(O)CC1 [2a, 4-Hydroxypiperidine-1-sulphonamide]
hCA XII
  Ki: 25.3 nM
hCA IX
  Ki: 54.2 nM
hCA II
  Ki: 42.7 nM
hCA I
  Ki: 75.6 nM

## CN1CCN(S(N)(=O)=O)CC1 [2b, 4-Methylpiperazine-1-sulphonamide]
hCA XII
  Ki: 52.5 nM
hCA IX
  Ki: 58.6 nM
hCA II
  Ki: 32.1 nM
hCA I
  Ki: 64.2 nM

## NS(=O)(=O)NCc1ccc(F)cc1 [2c, N-(4-Fluorobenzyl)sulfamide]
hCA XII
  Ki: 51.7 nM
hCA IX
  Ki: 30.7 nM
hCA II
  Ki: 70.5 nM
hCA I
  Ki: 126 nM

## NS(=O)(=O)NC1CCCc2ccccc21 (centres unmarked) [2d, N-(1,2,3,4-Tetrahydronaphthalen-1-yl)sulfamide]
hCA XII
  Ki: 59.7 nM
hCA IX
  Ki: 36.8 nM
hCA II
  Ki: 42.6 nM
hCA I
  Ki: 121 nM

## NS(=O)(=O)NCC1CCCO1 (centres unmarked) [2e, N-((tetrahydrofuran-2-yl)methyl)sulfamide]
hCA XII
  Ki: 98 nM
hCA IX
  Ki: 92.7 nM
hCA II
  Ki: 63.4 nM
hCA I
  Ki: 38.4 nM

## COC(=O)C1CCCN1S(N)(=O)=O (centres unmarked) [2f, Methyl sulfamoylprolinate]
hCA XII
  Ki: 83.6 nM
hCA IX
  Ki: 78.2 nM
hCA II
  Ki: 69.8 nM
hCA I
  Ki: 52.1 nM

## CN1CCC(NS(N)(=O)=O)CC1 [2g, (1-Methylpiperidin-4-yl)sulfamide]
hCA XII
  Ki: 38.4 nM
hCA IX
  Ki: 63.2 nM
hCA II
  Ki: 52.1 nM
hCA I
  Ki: 89.7 nM

## NS(=O)(=O)N1CCC(c2ccccc2)CC1 [2h, 4-Phenylpiperidine-1-sulphonamide]
hCA XII
  Ki: 96.7 nM
hCA IX
  Ki: 58.2 nM
hCA II
  Ki: 120 nM
hCA I
  Ki: 359 nM

## CN(C)CCN(Cc1ccccc1)S(N)(=O)=O [2i, Benzyl (2-(dimethylamino)ethyl)sulfamide]
hCA XII
  Ki: 19.7 nM
hCA IX
  Ki: 65.1 nM
hCA II
  Ki: 39.8 nM
hCA I
  Ki: 28.4 nM

## NS(=O)(=O)NCc1cccnc1 [2j, (Pyridin-3-ylmethyl)sulfamide]
hCA XII
  Ki: 16.5 nM
hCA IX
  Ki: 29.5 nM
hCA II
  Ki: 90.2 nM
hCA I
  Ki: 98.5 nM

## NS(=O)(=O)NCc1cccs1 [2k, (Thiophen-2-ylmethyl) sulfamide]
hCA XII
  Ki: 66.8 nM
hCA IX
  Ki: 73.2 nM
hCA II
  Ki: 48.2 nM
hCA I
  Ki: 22.6 nM

## CCN(CC)CCN(C)S(N)(=O)=O [2l, (2-(Diethylamino)ethyl)(methyl)sulfamide]
hCA XII
  Ki: 72.5 nM
hCA IX
  Ki: 126 nM
hCA II
  Ki: 92.3 nM
hCA I
  Ki: 59.6 nM

## CCOC(=O)C1CCN(S(N)(=O)=O)CC1 [2m, Ethyl 1-sulfamoylpiperidine-4-carboxylate]
hCA XII
  Ki: 25.9 nM
hCA IX
  Ki: 58.1 nM
hCA II
  Ki: 42.8 nM
hCA I
  Ki: 62.8 nM

## NS(=O)(=O)N1CCC(N2CCCCC2)CC1 [2n, [1,4'-Bipiperidine]-1'-sulphonamide]
hCA XII
  Ki: 35.1 nM
hCA IX
  Ki: 72.5 nM
hCA II
  Ki: 99.3 nM
hCA I
  Ki: 497 nM

## NS(=O)(=O)N1CCOCC1 [2o, Morpholine-4-sulphonamide]
hCA XII
  Ki: 101 nM
hCA IX
  Ki: 82.1 nM
hCA II
  Ki: 66.9 nM
hCA I
  Ki: 59.2 nM

## NC(=O)C1CCN(S(N)(=O)=O)CC1 [2p, 1-Sulfamoylpiperidine-4-carboxamide]
hCA XII
  Ki: 40.2 nM
hCA IX
  Ki: 46.2 nM
hCA II
  Ki: 59.4 nM
hCA I
  Ki: 88.2 nM

## NS(=O)(=O)N1CCNCC1 [2q, Piperazine-1-sulphonamide hydrochloride]
hCA XII
  Ki: 100 nM
hCA IX
  Ki: 78.2 nM
hCA II
  Ki: 52.9 nM
hCA I
  Ki: 68.9 nM

## CC1Cc2ccccc2N1S(N)(=O)=O (centres unmarked) [2r, 2-Methylindoline-1-sulphonamide]
hCA XII
  Ki: 116 nM
hCA IX
  Ki: 94.7 nM
hCA II
  Ki: 316 nM
hCA I
  Ki: 868 nM

## NS(=O)(=O)Nc1ncccn1 [2s, N-(Pyrimidin-2-yl)sulfamide]
hCA XII
  Ki: 39.3 nM
hCA IX
  Ki: 68 nM
hCA II
  Ki: 59.4 nM
hCA I
  Ki: 29.6 nM

## NS(=O)(=O)N1CCCc2ccccc21 [2t, 3,4-Dihydroquinoline-1(2H)-sulphonamide]
hCA XII
  Ki: 114 nM
hCA IX
  Ki: 34.2 nM
hCA II
  Ki: 89.5 nM
hCA I
  Ki: 231 nM

## NS(=O)(=O)Nc1cccc2ccccc12 [2u, N-(Naphthalen-1-yl)sulfamide]
hCA XII
  Ki: 72.3 nM
hCA IX
  Ki: 25.4 nM
hCA II
  Ki: 56.7 nM
hCA I
  Ki: 160 nM

## NS(=O)(=O)N1CCc2ccccc21 [2v, Indoline-1-sulphonamide]
hCA XII
  Ki: 95.7 nM
hCA IX
  Ki: 102 nM
hCA II
  Ki: 472 nM
hCA I
  Ki: 723 nM

## NS(=O)(=O)Nc1ccc(F)cc1F [2w, N-(2,4-Difluorophenyl)sulfamide]
hCA XII
  Ki: 224 nM
hCA IX
  Ki: 38.5 nM
hCA II
  Ki: 76.3 nM
hCA I
  Ki: 45.7 nM
